Laboratory results taken from ChEMBL document CHEMBL5550218, “Structural Insights into Protein-Inhibitor Interactions in Human Tryptophan Dioxygenase” (J Med Chem, 2024).

Biological target: Tryptophan 2,3-dioxygenase (Homo sapiens, UniProt P48775)
Sequence (P48775 whole entry): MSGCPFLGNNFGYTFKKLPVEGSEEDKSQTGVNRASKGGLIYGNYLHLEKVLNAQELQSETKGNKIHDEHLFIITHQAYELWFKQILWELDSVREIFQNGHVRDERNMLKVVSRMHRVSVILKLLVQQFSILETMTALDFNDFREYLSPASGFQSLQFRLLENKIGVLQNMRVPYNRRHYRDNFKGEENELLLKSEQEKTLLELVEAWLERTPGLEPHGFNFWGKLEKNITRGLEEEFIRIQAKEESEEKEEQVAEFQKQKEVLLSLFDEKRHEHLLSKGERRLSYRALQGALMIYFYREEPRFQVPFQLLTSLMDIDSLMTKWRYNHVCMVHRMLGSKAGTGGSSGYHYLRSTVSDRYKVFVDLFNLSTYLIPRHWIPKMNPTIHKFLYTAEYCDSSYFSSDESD

IC50: 424 µM
SMILES: O=C1CC(c2c[nH]c3ccc(F)cc23)C(=O)N1 (stereo unspecified) [PF-06840003]
